Assay results: patent US20150191469A1, “COMPOUNDS AND METHODS FOR TREATING HIV” (priority 2012, published 2015)

Test system: HIV
Assay: MT4 assay: antiviral HIV activity (cell protection, cell titer glo readout at 96 hours)
Format: cell-based
Settings: Human immunodeficiency virus 1, MT4, 96 h, MT4 cells, cell titer glo readout at 96 hours, 10 point dose response; read-out: HIV MT4 Assay IC50
How it was run: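 MT-4 cells infected with HIV, with inhibition readout by CellTiter-Glo luminescence at 96 h relative to no-compound control. Cytotoxicity measured in parallel under the same conditions. IC50 from a 10-point, 3-4-fold dilution series spanning >1000-fold, fitted with a four-parameter logistic equation.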

Row | SMILES | IC50 [nM]
1 | Cc1nc2c(cc(-c3nnc(NCC4CCOCC4)o3)n2C)c(-c2cc(F)c3c(c2C)CCCO3)c1[C@H](OC(C)(C)C)C(=O)O [Example 304] | 40.9
2 | Cc1nc2c(cc(-c3nnc(N(C)CCN4CCCC4)o3)n2C)c(-c2cc(F)c3c(c2C)CCCO3)c1[C@H](OC(C)(C)C)C(=O)O [Example 305] | 44.9
3 | Cc1nc2c(cc(-c3nnc(N4CCCN(C)CC4)o3)n2C)c(-c2cc(F)c3c(c2C)CCCO3)c1[C@H](OC(C)(C)C)C(=O)O [Example 306] | 51.8
4 | Cc1nc2c(cc(-c3nnc(N(C)C)o3)n2C)c(-c2cc(F)c3c(c2C)CCCO3)c1[C@H](OC(C)(C)C)C(=O)O [Example 308] | 14
5 | Cc1nc2c(cc(-c3nnc(N4CC5CN(C6COC6)CC5C4)o3)n2C)c(-c2cc(F)c3c(c2C)CCCO3)c1[C@H](OC(C)(C)C)C(=O)O (stereo partly shown) [Example 309] | 46
6 | Cc1nc2c(cc(-c3nnc(CN4CCCCC4)o3)n2C)c(-c2cc(F)c3c(c2C)CCCO3)c1[C@H](OC(C)(C)C)C(=O)O [Example 313] | 8.4
7 | Cc1nc2c(cc(-c3nnc(N4CCN(C5COC5)CC4)o3)n2C)c(-c2cc(F)c3c(c2C)CCCO3)c1[C@H](OC(C)(C)C)C(=O)O [Example 315] | 40.6
8 | Cc1nc2c(cc(-c3nnc(N4CCC(N5CCOCC5)CC4)o3)n2C)c(-c2cc(F)c3c(c2C)CCCO3)c1[C@H](OC(C)(C)C)C(=O)O [Example 318] | 14.2
9 | Cc1nc2c(cc(-c3nnc(N4CCN(S(=O)(=O)N5CCCCC5)CC4)o3)n2C)c(-c2cc(F)c3c(c2C)CCCO3)c1[C@H](OC(C)(C)C)C(=O)O [Example 319] | 4.9
10 | Cc1nc2c(cc(-c3nnc(N4CCC(N5CCS(=O)(=O)CC5)CC4)o3)n2C)c(-c2cc(F)c3c(c2C)CCCO3)c1[C@H](OC(C)(C)C)C(=O)O [Example 320] | 380
11 | Cc1nc2c(cc(-c3nnc(N4CCC5(CCCCC5)CC4)o3)n2C)c(-c2cc(F)c3c(c2C)CCCO3)c1[C@H](OC(C)(C)C)C(=O)O [Example 321] | 13.5
12 | Cc1nc2c(cc(-c3nnc(N4CCN(CC5CCOCC5)CC4)o3)n2C)c(-c2cc(F)c3c(c2C)CCCO3)c1[C@H](OC(C)(C)C)C(=O)O [Example 322] | 4.6
13 | Cc1nc2c(cc(-c3nnc(N4CCC(OC(C)C)CC4)o3)n2C)c(-c2cc(F)c3c(c2C)CCCO3)c1[C@H](OC(C)(C)C)C(=O)O [Example 323] | 5.2
14 | Cc1nc2c(cc(-c3nnc(N4CCC[C@@H]4C)o3)n2C)c(-c2cc(F)c3c(c2C)CCCO3)c1[C@H](OC(C)(C)C)C(=O)O [Example 324] | 4
15 | Cc1nc2c(cc(-c3nnc(N4CCC4)o3)n2C)c(-c2cc(F)c3c(c2C)CCCO3)c1[C@H](OC(C)(C)C)C(=O)O [Example 325] | 13.6
16 | Cc1nc2c(cc(-c3nnc(N4CCN5CCC[C@@H]5C4)o3)n2C)c(-c2cc(F)c3c(c2C)CCCO3)c1[C@H](OC(C)(C)C)C(=O)O [Example 326] | 3.8
17 | Cc1nc2c(cc(-c3nnc(N4CCC(n5cccn5)CC4)o3)n2C)c(-c2cc(F)c3c(c2C)CCCO3)c1[C@H](OC(C)(C)C)C(=O)O [Example 327] | 9.4

Row | SMILES | IC50 [nM]
18 | Cc1nc2c(cc(-c3nnc(N4CCN(C5CCOCC5)C[C@H]4C)o3)n2C)c(-c2cc(F)c3c(c2C)CCCO3)c1[C@H](OC(C)(C)C)C(=O)O [Example 328] | 4.2
19 | COC[C@H]1CCCN1c1nnc(-c2cc3c(-c4cc(F)c5c(c4C)CCCO5)c([C@H](OC(C)(C)C)C(=O)O)c(C)nc3n2C)o1 [Example 330] | 12.8
20 | Cc1nc2c(cc(-c3nnc(N4CCN(C5CCOCC5)[C@@H](C)C4)o3)n2C)c(-c2cc(F)c3c(c2C)CCCO3)c1[C@H](OC(C)(C)C)C(=O)O [Example 335] | 10.1
21 | Cc1nc2c(cc(-c3nnc(N4CCN(C5CC5)CC4)o3)n2C)c(-c2cc(F)c3c(c2C)CCCO3)c1[C@H](OC(C)(C)C)C(=O)O [Example 336] | 4.5
22 | COCC1CCCN1C1CCN(c2nnc(-c3cc4c(-c5cc(F)c6c(c5C)CCCO6)c([C@H](OC(C)(C)C)C(=O)O)c(C)nc4n3C)o2)CC1 (stereo partly shown) [Example 339] | 28.8
23 | Cc1nc2c(cc(-c3nnc(NCCN4CCN(C)CC4)o3)n2C)c(-c2cc(F)c3c(c2C)CCCO3)c1[C@H](OC(C)(C)C)C(=O)O [Example 341] | 1250
24 | Cc1nc2c(cc(-c3nnc(N4CCN(C(C)C)CC4)o3)n2C)c(-c2cc(F)c3c(c2C)CCCO3)c1[C@H](OC(C)(C)C)C(=O)O [Example 342] | 5.4
25 | Cc1nc2c(cc(-c3nnc(N4CCCCC4)o3)n2C)c(-c2cc(F)c3c(c2C)CCCO3)c1[C@H](OC(C)(C)C)C(=O)O [Example 345] | 2.7
26 | Cc1nc2c(cc(-c3nnc(N4CCC(F)CC4)o3)n2C)c(-c2cc(F)c3c(c2C)CCCO3)c1[C@H](OC(C)(C)C)C(=O)O [Example 346] | 2.7
27 | Cc1nc2c(cc(-c3nnc(N4CCN(C5CCOCC5)[C@H](C)C4)o3)n2C)c(-c2cc(F)c3c(c2C)CCCO3)c1[C@H](OC(C)(C)C)C(=O)O [Example 347] | 6.3
28 | Cc1nc2c(cc(-c3nnc(N4CCN5CCC[C@H]5C4)o3)n2C)c(-c2cc(F)c3c(c2C)CCCO3)c1[C@H](OC(C)(C)C)C(=O)O [Example 348] | 3.1
29 | COC[C@@H]1CCCN1c1nnc(-c2cc3c(-c4cc(F)c5c(c4C)CCCO5)c([C@H](OC(C)(C)C)C(=O)O)c(C)nc3n2C)o1 [Example 349] | 3
30 | Cc1nc2c(cc(-c3cc(N4CCN(C5CCOCC5)CC4)ncn3)n2C)c(-c2cc(F)c3c(c2C)CCCO3)c1[C@H](OC(C)(C)C)C(=O)O [Example 359] | 4.1
31 | Cc1nc2c(cc(-c3cncc(N4CCN(C5CCOCC5)CC4)n3)n2C)c(-c2cc(F)c3c(c2C)CCCO3)c1[C@H](OC(C)(C)C)C(=O)O [Example 360] | 30.8
32 | Cc1nc2c(cc(-c3cc(N4CCN(C5CCOCC5)CC4)ccn3)n2C)c(-c2cc(F)c3c(c2C)CCCO3)c1[C@H](OC(C)(C)C)C(=O)O [Example 362] | 5.8
33 | Cc1nc2c(cc(-c3ccnc(N4CCN(C5CCOCC5)CC4)n3)n2C)c(-c2cc(F)c3c(c2C)CCCO3)c1[C@H](OC(C)(C)C)C(=O)O [Example 363] | 9.9
34 | Cc1nc2c(cc(-c3cc(NCCN4CCOCC4)ncn3)n2C)c(-c2cc(F)c3c(c2C)CCCO3)c1[C@H](OC(C)(C)C)C(=O)O [Example 365] | 86.7

The next lines start with the values.

Row | IC50 [nM] | SMILES
35 | 12.3 | COCCN(C)c1nnc(-c2cc3c(-c4cc(F)c5c(c4C)CCCO5)c([C@H](OC(C)(C)C)C(=O)O)c(C)nc3n2C)o1 [Example 307]
36 | 15.4 | Cc1nc2c(cc(-c3nnc(N4CCOCC4)o3)n2C)c(-c2cc(F)c3c(c2C)CCCO3)c1[C@H](OC(C)(C)C)C(=O)O [Example 310]
37 | 4.5 | Cc1nc2c(cc(-c3nnc(N4CCCC4)o3)n2C)c(-c2cc(F)c3c(c2C)CCCO3)c1[C@H](OC(C)(C)C)C(=O)O [Example 311]
38 | 19.9 | Cc1nc2c(cc(-c3nnc(N4CCN(C)CC4)o3)n2C)c(-c2cc(F)c3c(c2C)CCCO3)c1[C@H](OC(C)(C)C)C(=O)O [Example 312]
39 | 7.6 | Cc1nc2c(cc(-c3nnc(N4CCC(F)(F)CC4)o3)n2C)c(-c2cc(F)c3c(c2C)CCCO3)c1[C@H](OC(C)(C)C)C(=O)O [Example 314]
40 | 566 | Cc1nc2c(cc(-c3nnc(N4CCS(=O)(=O)CC4)o3)n2C)c(-c2cc(F)c3c(c2C)CCCO3)c1[C@H](OC(C)(C)C)C(=O)O [Example 316]
41 | 118 | Cc1nc2c(cc(-c3nnc(N4CCC(N5CCCCC5)CC4)o3)n2C)c(-c2cc(F)c3c(c2C)CCCO3)c1[C@H](OC(C)(C)C)C(=O)O [Example 317]
42 | 13.4 | Cc1nc2c(cc(-c3nnc(N4CCOC[C@@H]4C)o3)n2C)c(-c2cc(F)c3c(c2C)CCCO3)c1[C@H](OC(C)(C)C)C(=O)O [Example 329]
43 | 4.3 | Cc1nc2c(cc(-c3nnc(N4CC[C@@H](F)C4)o3)n2C)c(-c2cc(F)c3c(c2C)CCCO3)c1[C@H](OC(C)(C)C)C(=O)O [Example 331]
44 | 23.8 | Cc1nc2c(cc(-c3nnc(N4CC[C@H](N(C)C)C4)o3)n2C)c(-c2cc(F)c3c(c2C)CCCO3)c1[C@H](OC(C)(C)C)C(=O)O [Example 332]
45 | 16.5 | Cc1nc2c(cc(-c3nnc(N4CCN5CCOC[C@@H]5C4)o3)n2C)c(-c2cc(F)c3c(c2C)CCCO3)c1[C@H](OC(C)(C)C)C(=O)O [Example 333]
46 | 10.4 | Cc1nc2c(cc(-c3nnc(N4CCOC[C@H]4C)o3)n2C)c(-c2cc(F)c3c(c2C)CCCO3)c1[C@H](OC(C)(C)C)C(=O)O [Example 334]
47 | 4.6 | Cc1nc2c(cc(-c3nnc(N4CCN(CC5CC5)CC4)o3)n2C)c(-c2cc(F)c3c(c2C)CCCO3)c1[C@H](OC(C)(C)C)C(=O)O [Example 337]
48 | 43.2 | Cc1nc2c(cc(-c3nnc(N4CCN(CCN5CCOCC5)CC4)o3)n2C)c(-c2cc(F)c3c(c2C)CCCO3)c1[C@H](OC(C)(C)C)C(=O)O [Example 340]
49 | 10.6 | Cc1nc2c(cc(-c3nnc(N(C)CCN4CCOCC4)o3)n2C)c(-c2cc(F)c3c(c2C)CCCO3)c1[C@H](OC(C)(C)C)C(=O)O [Example 343]
50 | 130 | Cc1nc2c(cc(-c3nnc(N4CCC(N5CCCC5)CC4)o3)n2C)c(-c2cc(F)c3c(c2C)CCCO3)c1[C@H](OC(C)(C)C)C(=O)O [Example 344]
51 | 11.9 | Cc1nc2c(cc(-c3nnc(N4CCCOCC4)o3)n2C)c(-c2cc(F)c3c(c2C)CCCO3)c1[C@H](OC(C)(C)C)C(=O)O [Example 350]
52 | 2 | Cc1nc2c(cc(-c3nnc(N4C[C@H](C)O[C@@H](C)C4)o3)n2C)c(-c2cc(F)c3c(c2C)CCCO3)c1[C@H](OC(C)(C)C)C(=O)O [Example 351]
53 | 5.5 | Cc1nc2c(cc(-c3nnc(N4CCOC(C)(C)C4)o3)n2C)c(-c2cc(F)c3c(c2C)CCCO3)c1[C@H](OC(C)(C)C)C(=O)O [Example 352]
54 | 7 | Cc1nc2c(cc(-c3nnc(N4CC5CCC(C4)O5)o3)n2C)c(-c2cc(F)c3c(c2C)CCCO3)c1[C@H](OC(C)(C)C)C(=O)O [Example 353]
55 | 14.7 | Cc1nc2c(cc(-c3cncc(N4CCN(C5CCOCC5)CC4)c3)n2C)c(-c2cc(F)c3c(c2C)CCCO3)c1[C@H](OC(C)(C)C)C(=O)O [Example 361]
